The text below walks through data of patent publication US6987114B1, “Antiviral pyrimidinedione derivatives and process for the preparation thereof” (Samjin Pharmaceutical Co., Ltd, priority 1999, dated 2006).

What is called melting point is the temperature, or range, at which the solid turns liquid.

In data set [1] the test system is HIV. The data set is described as follows: microbe, parasite or virus in culture. It counts as cell-based. On the procedure: Anti-HIV activity tests in vitro of the compounds according to the present invention were performed as described in J. Med. Chem, 34, 357, 1991. Inhibition by the compounds of virus-induced cytotoxic effect in MT-4 cells was measured as follows.
(§1) MT-4 cells were suspended in culture media at 2.5×10^5 cells/ml and infected with 1000 CCID50 (50% cell culture infective dose) of HIV. Immediately after virus infection, 100 μl of cell suspension was brought into each well of a flat-bottomed microtitray containing various concentrations of the test compounds. After 4 or 5 days incubation at 37° C., efficacy of the compounds was determined by the MTT method. Cytotoxicity of the compounds was assessed in parallel with their antiviral activity, based on viability of mock-infected host cells as determined by the MTT method.

For data set [2], the system named is mock-infected MT-4 cells. The data set is described as follows: Cytotoxicity based on viability of mock-infected host cells (MTT method). It counts as cell-based. The protocol: as §1
(In general: Tetrazolium dyes change colour on reduction, which living cells bring about.)

[3] abbreviates: Human immunodeficiency virus 1, MT4, HIV-infected MT-4 cells, MTT method, 4 or 5 days at 37° C., read-out: ED50 (the source's name).
Where [4] appears, read: mock-infected MT-4 cells, MTT method, 4 or 5 days at 37° C.
Where [5] appears, read: Human immunodeficiency virus 1, MT4, read-out: ED50.
Where [6] appears, read: HIV-infected MT-4 cells, MTT method, 4 or 5 days at 37° C.

Converted amounts (≈) assume the structure as drawn. Where two headings read alike, the source gives them in different places. A value given as a limit tells only on which side of the number the result lay.

Regarding `CCc1c(Sc2cc(C)cc(C)c2)n(CC2CC2)c(=O)[nH]c1=O` [Example 1, 1-(Cyclopropyl)methyl-5-ethyl-6-(3,5-dimethylphenyl)thio-2,4-pyrimidinedione], the melting point is 161 to 163 °C. Also, the EC50 in data set [1] (setting [3]) worked out at 2.7 ng/mL (≈ 8.17 nM). Also, the CD50 in data set [2] (setting [4]) came to 4.75 µg/mL.

Consider `Cc1cc(C)cc(Oc2c(C(C)C)c(=O)[nH]c(=O)n2CC2CC2)c1` [Example 4, 1-(Cyclopropyl)methyl-5-isopropyl-6-(3,5-dimethylphenoxy)-2,4-pyrimidinedione], for which the melting point was in the range of 146 to 148 °C. Moreover, the EC50 in data set [1] (setting [3]) is less than 0.2 ng/mL. In addition, the CD50 in data set [2] (setting [4]) amounted to 12.70 µg/mL.

As to `CCc1c(C(=O)c2cc(C)cc(C)c2)n(CC2CC2)c(=O)[nH]c1=O` [Example 5, 1-(Cyclopropyl)methyl-5-ethyl-6-(3,5-dimethylbenzoyl)-2,4-pyrimidinedione], the melting point was 234 to 236 °C. For the same molecule, the EC50 in data set [1] (setting [3]) was found to be 1.1 ng/mL (≈ 3.37 nM). Besides, the CD50 in data set [2] (setting [4]) was 39.4 µg/mL.

As to `Cc1cc(C)cc(C(=O)c2c(C(C)C)c(=O)[nH]c(=O)n2CC2CC2)c1` [Example 6, 1-(Cyclopropyl)methyl-5-isopropyl-6-(3,5-dimethylbenzoyl)-2,4-pyrimidinedione], the melting point fell in the range of 193 to 195 °C. Moreover, in data set [1] (setting [3]), the EC50 amounted to 2.2 ng/mL (≈ 6.46 nM). In data set [2] (setting [4]), this molecule had a CD50 of 8.5 µg/mL.

For `CCc1c(C(=O)c2cc(C)cc(C)c2)n(CC2CCC2)c(=O)[nH]c1=O` [Example 11, 1-(Cyclobutyl)methyl-5-ethyl-6-(3,5-dimethylbenzoyl)-2,4-pyrimidinedione], the melting point lay in the range of 200 to 202 °C. For the same molecule, the EC50 in data set [1] (setting [3]) came out at 2.7 ng/mL (≈ 7.93 nM). Also, the CD50 in data set [2] (setting [4]) was 89.1 µg/mL.

`Cc1cc(C)cc(C(=O)c2c(C(C)C)c(=O)[nH]c(=O)n2CC2CCC2)c1` [Example 12, 1-(Cyclobutyl)methyl-5-isopropyl-6-(3,5-dimethylbenzoyl)-2,4-pyrimidinedione] displayed a melting point of 171 to 173 °C. Further, the EC50 in data set [1] (setting [3]) turned out to be 2.7 ng/mL (≈ 7.62 nM). Also, the CD50 in data set [2] (setting [4]) was found to be 8.5 µg/mL.

As to `CCc1c(C(=O)c2cc(C)cc(C)c2)n(CC2CCCCC2)c(=O)[nH]c1=O` [Example 17, 1-(Cyclohexyl)methyl-5-ethyl-6-(3,5-dimethylbenzoyl)-2,4-pyrimidinedione], the melting point lay within 177 to 179 °C. In data set [1] (setting [5]), the EC50 worked out at 13 ng/mL (≈ 35.3 nM). Also, the CD50 in data set [2] (setting [4]) stood at 7.10 µg/mL.

The molecule `Cc1cc(C)cc(C(=O)c2c(C(C)C)c(=O)[nH]c(=O)n2CC2CCCCC2)c1` [Example 18, 1-(Cyclohexyl)methyl-5-isopropyl-6-(3,5-dimethylbenzoyl)-2,4-pyrimidinedione] showed a melting point of 160 to 162 °C. The EC50 in data set [1] (setting [5]) was 13 ng/mL (≈ 34 nM). For the same molecule, the CD50 in data set [2] (setting [4]) stood at 8.00 µg/mL.

Regarding `CCc1c(C(=O)c2cc(C)cc(C)c2)n(Cc2ccccc2)c(=O)[nH]c1=O` [Example 23, 1-Benzyl-5-ethyl-6-(3,5-dimethylbenzoyl)-2,4-pyrimidine-dione], the melting point was in the range of 202 to 204 °C. Moreover, the EC50 in data set [1] (setting [3]) stood at 1.6 ng/mL (≈ 4.41 nM). In data set [2] (setting [4]), this molecule yielded a CD50 of 8.00 µg/mL.

Take `Cc1cc(C)cc(C(=O)c2c(C(C)C)c(=O)[nH]c(=O)n2Cc2ccccc2)c1` [Example 24, 1-Benzyl-5-isopropyl-6-(3,5-dimethylbenzoyl)-2,4-pyrimidinedione]: the melting point fell in the range of 188 to 190 °C. In addition, the EC50 in data set [1] (setting [3]) was determined as 0.9 ng/mL (≈ 2.39 nM). Moreover, in data set [2] (setting [4]), the CD50 was found to be 5.20 µg/mL.

With `CCc1c(Sc2cc(C)cc(C)c2)n(Cc2cccc(OC)c2)c(=O)[nH]c1=O` [Example 25, 1-(3-Methoxybenzyl)-5-ethyl-6-(3,5-dimethylphenyl)thio-2,4-pyrimidinedione], the melting point was in the range of 130 to 131 °C. Further, the EC50 in data set [1] (setting [3]) was 3 ng/mL (≈ 7.57 nM). The CD50 in data set [2] (setting [4]) was determined as 9.04 µg/mL.

Take `COc1cccc(Cn2c(Sc3cc(C)cc(C)c3)c(C(C)C)c(=O)[nH]c2=O)c1` [Example 26, 1-(3-Methoxybenzyl)-5-isopropyl-6-(3,5-dimethylphenyl)thio-2,4-pyrimidinedione]: the melting point was in the range of 135 to 137 °C. In data set [1] (setting [3]), the EC50 is 3 ng/mL (≈ 7.31 nM). In addition, in data set [2] (setting [4]), the CD50 was 9.53 µg/mL.

Consider `CCc1c(Oc2cc(C)cc(C)c2)n(Cc2cccc(OC)c2)c(=O)[nH]c1=O` [Example 27, 1-(3-Methoxybenzyl)-5-ethyl-6-(3,5-dimethylphenoxy)-2,4-pyrimidinedione], for which the melting point was in the range of 133 to 135 °C. Also, in data set [1] (setting [3]), the EC50 was 14 ng/mL (≈ 36.8 nM). In addition, the CD50 in data set [2] (setting [4]) was found to be 10.68 µg/mL.

On to `COc1cccc(Cn2c(Oc3cc(C)cc(C)c3)c(C(C)C)c(=O)[nH]c2=O)c1` [Example 28, 1-(3-Methoxybenzyl)-5-isopropyl-6-(3,5-dimethylphenoxy)-2,4-pyrimidinedione], for which the melting point fell in the range of 158 to 159 °C. The EC50 in data set [1] (setting [3]) worked out at 6 ng/mL (≈ 15.2 nM). The molecule also gave a CD50 in data set [2] (setting [4]) of 30.60 µg/mL.

Regarding `CCc1c(C(=O)c2cc(C)cc(C)c2)n(Cc2cccc(OC)c2)c(=O)[nH]c1=O` [Example 29, 1-(3-Methoxybenzyl)-5-ethyl-6-(3,5-dimethylbenzoyl)-2,4-pyrimidinedione], the melting point was 185 to 187 °C. Further, the EC50 in data set [1] (setting [3]) came to 3 ng/mL (≈ 7.64 nM). Moreover, the CD50 in data set [2] (setting [4]) was 7.22 µg/mL.

In turn, `COc1cccc(Cn2c(C(=O)c3cc(C)cc(C)c3)c(C(C)C)c(=O)[nH]c2=O)c1` [Example 30, 1-(3-Methoxybenzyl)-5-isopropyl-6-(3,5-dimethylbenzoyl)-2,4-pyrimidinedione] registered a melting point of 184 to 186 °C. In addition, the EC50 in data set [1] (setting [3]) was 2 ng/mL (≈ 4.92 nM). The molecule also yielded a CD50 in data set [2] (setting [4]) of 3.83 µg/mL.

On to `CCc1c(Sc2cc(C)cc(C)c2)n(Cc2ccc(OC(F)(F)F)cc2)c(=O)[nH]c1=O` [Example 31, 1-(4-Trifluoromethoxybenzyl)-5-ethyl-6-(3,5-dimethylphenyl)thio-2,4-pyrimidinedione], for which the melting point fell in the range of 138 to 140 °C. For the same molecule, the EC50 in data set [1] (setting [3]) turned out to be 17 ng/mL (≈ 37.7 nM). For the same molecule, in data set [2] (setting [4]), the CD50 was 4.86 µg/mL.

As to `Cc1cc(C)cc(Sc2c(C(C)C)c(=O)[nH]c(=O)n2Cc2ccc(OC(F)(F)F)cc2)c1` [Example 32, 1-(4-Trifluoromethoxybenzyl)-5-isopropyl-6-(3,5-dimethylphenyl)thio-2,4-pyrimidinedione], the melting point was in the range of 124 to 126 °C. Also, the EC50 in data set [1] (setting [3]) turned out to be 17 ng/mL (≈ 36.6 nM). Further, the CD50 in data set [2] (setting [4]) is 8.99 µg/mL.

Consider `CCc1c(Oc2cc(C)cc(C)c2)n(Cc2ccc(OC(F)(F)F)cc2)c(=O)[nH]c1=O` [Example 33, 1-(4-Trifluoromethoxybenzyl)-5-ethyl-6-(3,5-dimethyl-phenoxy)-2,4-pyrimidinedione], for which the melting point was in the range of 148 to 150 °C. For the same molecule, in data set [1] (setting [3]), the EC50 was 69 ng/mL (≈ 159 nM). Further, in data set [2] (setting [4]), the CD50 is greater than 100.00 µg/mL.

In turn, `Cc1cc(C)cc(Oc2c(C(C)C)c(=O)[nH]c(=O)n2Cc2ccc(OC(F)(F)F)cc2)c1` [Example 34, 1-(4-Trifluoromethoxybenzyl)-5-isopropyl-6-(3,5-dimethylphenoxy)-2,4-pyrimidinedione] had a melting point of 173 to 175 °C. Moreover, the EC50 in data set [1] (setting [3]) was 45 ng/mL (≈ 100 nM). This molecule registered a CD50 in data set [2] (setting [4]) of 8.06 µg/mL.

For the molecule `CCc1c(C(=O)c2cc(C)cc(C)c2)n(Cc2ccc(OC(F)(F)F)cc2)c(=O)[nH]c1=O` [Example 35, 1-(4-Trifluoromethoxybenzyl)-5-ethyl-6-(3,5-dimethylbenzoyl)-2,4-pyrimidinedione], the melting point was 155 to 157 °C. Moreover, the EC50 in data set [1] (setting [3]) came to 4 ng/mL (≈ 8.96 nM). The CD50 in data set [2] (setting [4]) is 33.83 µg/mL.

`Cc1cc(C)cc(C(=O)c2c(C(C)C)c(=O)[nH]c(=O)n2Cc2ccc(OC(F)(F)F)cc2)c1` [Example 36, 1-(4-Trifluoromethoxybenzyl)-5-isopropyl-6-(3,5-dimethyl-benzoyl)-2,4-pyrimidinedione] yielded a melting point of 79 to 81 °C. In addition, in data set [1] (setting [3]), the EC50 came to 5 ng/mL (≈ 10.9 nM). This molecule registered a CD50 in data set [2] (setting [4]) of 7.88 µg/mL.

For `Cc1cc(C)cc(Oc2c(C(C)C)c(=O)[nH]c(=O)n2CC2CO2)c1` (stereo not shown) [Example 138, 1-(2,3-Epoxypropyl)-5-isopropyl-6-(3,5-dimethylphenoxy)-2,4-pyrimidinedione], in data set [1] (setting [5]), the EC50 worked out at 340 ng/mL (≈ 1030 nM). In data set [2] (setting [4]), the CD50 is 39.60 µg/mL.

For the molecule `CCc1c(C(=O)c2cc(C)cc(C)c2)n(CC2CO2)c(=O)[nH]c1=O` (stereo not shown) [Example 139, 1-(2,3-Epoxypropyl)-5-ethyl-6-(3,5-dimethylbenzoyl)-2,4-pyrimidinedione], the EC50 in data set [1] (setting [5]) came out at 340 ng/mL (≈ 1040 nM). The CD50 in data set [2] (setting [4]) was greater than 100.00 µg/mL.

In the case of `Cc1cc(C)cc(C(=O)c2c(C(C)C)c(=O)[nH]c(=O)n2CC2CO2)c1` (stereo not shown) [Example 140, 1-(2,3-Epoxypropyl)-5-isopropyl-6-(3,5-dimethylbenzoyl)-2,4-pyrimidinedione], the EC50 in data set [1] (setting [5]) was 94 ng/mL (≈ 275 nM). In data set [2] (setting [4]), the CD50 was 41.90 µg/mL.

Consider `CCc1c(Sc2cc(C)cc(C)c2)n(Cc2occc2C(=O)OC)c(=O)[nH]c1=O` [Example 151, 1-(3-Methoxycarbonyl-2-furanylmethyl)-5-ethyl-6-(3,55 dimethylphenyl)thio-2,4-pyrimidinedione], for which the ED50 in data set [1] (setting [6]) stood at 15 ng/mL (≈ 36.2 nM). In data set [2], the CD50 was 8.67 µg/mL.

In data set [1] (setting [6]), `CCC(=O)Cn1c(C(=O)c2cc(C)cc(C)c2)c(CC)c(=O)[nH]c1=O` [Example 163, 1-(2-Butanon-1-yl)-5-ethyl-6-(3,5-dimethylbenzoyl) δ 2,4-pyrimidinedione] registered an ED50 of 3.4 ng/mL (≈ 9.93 nM). The molecule also had a CD50 in data set [2] (setting [4]) of 9.31 µg/mL.
